Reference: US20200129513A1, “COMPOSITIONS AND METHODS FOR TREATING HEMATOLOGIC MALIGNANCIES” (UNIVERSITY OF ROCHESTER, priority 2018, published 2020)
Like-named read-outs stand apart in the source and are kept apart here.

Legend:
[1] = tested on: CLL patient cells; assay: CLL cell death, CellTox Green Cytotoxicity Assay; format: cell-based; conditions: Homo sapiens, 48 hours culture, FIG. 3, read-out: IC50, induction of CLL cell death
Source text: The common off-target with the best binding was ERRB2 in the EGFR family of receptors. Afatinib (an irreversible inhibitor that covalently binds to the EGFR family of receptors (including ERBB2) active tyrosine kinase domain ATP-binding site, a similar mechanism to that of the BTK inhibitors) was chosen as an example EGFR family inhibitor to test this hypothesis. […] Media is RPMI1640 (Cellgro, Corning) supplemented with penicillin, streptomycin, L-glutamine (Gibco, ThermoFisher Scientific, Waltham, Mass.), and 10% heat-inactivated fetal bovine serum (Sigma-Aldrich, St. Louis, Mo.). After cell culture, viability was measured by Cell Titer-Blue Cell Viability Assay (Promega, Madison, Wis.) according to manufacturer's directions. Non-viable cells produce less fluorescence. Measurements were done in triplicate for each concentration. Fluorescence was measured on a BioTek Synergy2 96-well plate reader (BioTek Instruments, Winooski, Vt.). Data was analysed using Prism6 software (GraphPad Software, La Jolla, Calif.) and dose curve was generated using 4PL fit. […] To test that an EGFR family inhibitor not only reduces CLL cell viability, but also induces cell death in vitro, cytotoxicity was measured by CellTox Green Cytotoxicity Assay (Promega). Dead cells produce more fluorescence in this assay. […] Fluorescence was measured on a BioTek Synergy2 96-well plate reader (BioTek Instruments). […]

[2] = tested on: AML patient cells; assay: AML cell death, CellTox Green Cytotoxicity Assay; format: cell-based; conditions: Homo sapiens, one AML patient sample, 30 hours culture, FIG. 7, read-out: IC50, induction of AML cell death
[3] = tested on: CLL patient cells; assay: CLL cell viability, Cell Titer-Glo 2.0 Assay; format: cell-based, human; conditions: for IC50: Homo sapiens, CLL patient cells, 48 hours culture
Experimental: (§1) After cell culture, viability was assayed according to manufacturer's directions. Luminescence was measured on a BioTek Synergy2 96-well plate reader (BioTek Instruments). Data was analysed using Prism6 software (GraphPad Software) and dose curve was generated using 4PL fit.
as §1, with “Cell viability was measured by Cell Titer-Glo 2.0 Assay (Promega) in triplicate for each concentration. […] After” for “After”

[4] = tested on: CA46 cell line; assay: NHL p53 mutated cell line viability, Cell Titer-Glo 2.0 Assay; format: cell-based; conditions: Homo sapiens; CA46 (BL-derived, p.R248Q p53), 54 hours culture, Cell Titer-Glo 2.0, FIG. 9; read-out: IC50, reduction of cell viability of p53 mutated NHL cell line
Experimental: Luminescence was measured on a BioTek Synergy2 96-well plate reader (BioTek Instruments). Data was analysed using Prism6 software (GraphPad Software) and dose curve was generated using 4PL fit.

[5] = tested on: CLL patient cells; assay: CLL cell viability, Cell Titer-Blue Cell Viability Assay; format: cell-based; conditions: Homo sapiens, 48 hours culture, FIG. 1, read-out: IC50, reduction of CLL cell viability
Source text: The common off-target with the best binding was ERRB2 in the EGFR family of receptors. Afatinib (an irreversible inhibitor that covalently binds to the EGFR family of receptors (including ERBB2) active tyrosine kinase domain ATP-binding site, a similar mechanism to that of the BTK inhibitors) was chosen as an example EGFR family inhibitor to test this hypothesis. […] Media is RPMI1640 (Cellgro, Corning) supplemented with penicillin, streptomycin, L-glutamine (Gibco, ThermoFisher Scientific, Waltham, Mass.), and 10% heat-inactivated fetal bovine serum (Sigma-Aldrich, St. Louis, Mo.). After cell culture, viability was measured by Cell Titer-Blue Cell Viability Assay (Promega, Madison, Wis.) according to manufacturer's directions. Non-viable cells produce less fluorescence. Measurements were done in triplicate for each concentration. Fluorescence was measured on a BioTek Synergy2 96-well plate reader (BioTek Instruments, Winooski, Vt.). Data was analysed using Prism6 software (GraphPad Software, La Jolla, Calif.) and dose curve was generated using 4PL fit. Afatinib reduces CLL cell viability in a dose dependent manner (IC50 0.4 μM) as shown in FIG. 1 (all data points shown).

[6] = tested on: primary AML suspension cells; assay: AML cell viability, Cell Titer-Glo 2.0 Assay; format: cell-based, human; conditions: two different AML patient samples, 30 hours culture, Cell Titer-Glo 2.0, FIG. 6, read-out: IC50, reduction of AML cell viability
Experimental: To test this, primary AML suspension cells were treated in vitro with afatinib. Cell viability was measured by Cell Titer-Glo 2.0 Assay (Promega) in triplicate for each concentration. Two different AML patient cells (1×10^5 cells/100 μL media) were cultured for 30 hours in clear 96-well flat bottom tissue culture plates (Costar, Corning) with serial drug dilutions (100 μM afatinib (LC Laboratories) serially diluted 3-fold ending at ˜0.01 μM). Media is RPMI1640 (Cellgro, Corning) supplemented with penicillin, streptomycin, L-glutamine (Gibco, ThermoFisher Scientific), and 10% heat-inactivated fetal bovine serum (Sigma-Aldrich). After cell culture, viability was assayed according to manufacturer's directions. Luminescence was measured on a BioTek Synergy2 96-well plate reader (BioTek Instruments). Data was analysed using Prism6 software (GraphPad Software) and dose curve was generated using 4PL fit.

[7] = tested on: CA46 cell line; assay: NHL p53 mutated cell line death, CellTox Green Cytotoxicity Assay; format: cell-based; conditions: Homo sapiens, CA46, 54 hours culture, FIG. 10, read-out: IC50, induction of cell death of p53 mutated NHL cell line

SMILES: CN(C)C/C=C/C(=O)Nc1cc2c(Nc3ccc(F)c(Cl)c3)ncnc2cc1O[C@H]1CCOC1 [Afatinib]
- IC50 [1]: 12 µM
- IC50 [2]: 19 µM
- IC50 ([3]; read-out: IC50, reduction of CLL cell viability (afatinib vs ibrutinib comparison), Cell Titer-Glo 2.0, FIG. 4): 500 nM
- IC50 ([3]; Cell Titer-Glo 2.0, FIG. 2, read-out: IC50, reduction of CLL cell viability): 300 nM
- fold lower concentration than ibrutinib for reduction of CLL cell viability ([3]; ratio of IC50 values, FIG. 4): 20 fold
- IC50 [4]: 3000 nM
- IC50 [5]: 400 nM
- IC50 ([6]; Homo sapiens, 30 h): 2100 nM
- IC50 [6]: 2600 nM
- IC50 [7]: 22 µM
